Test [1] has as its system NF-kB-dependent TNF-α secretion. As to the kind of experiment: TNF-α secretion assay (counterscreen). It counts as cell-based. As to conditions: Homo sapiens; THP-1 cells, Pam3CSK4-stimulated, 3 hours, HTRF. The protocol:
Monocytic THP-1 cells were maintained according to providers' instructions in RPMI media as described above. Undifferentiated cells were plated at 50,000 cells per well in a 384-well flat-bottom cell culture plates (Greiner, #781986), and allowed to rest overnight. Experimental compounds were prepared and added as described above. TNF-α secretion was triggered by the addition of either 1 μg/mL LPS (Sigma, #L4391) or 100 ng/mL Pam3CSK4 (Invivogen, #tlrl-pms) depending on the experiment, and cells were incubated for 3 hours. 10 μL supernatant was removed, and TNF-α levels were monitored using an HTRF assay (CisBio, #62TNFPEC) according to manufacturers' instructions. Viability was monitored as described above.
IC50 values were calculated from the plot of percentage of inhibition versus the inhibitor concentration by a logistics fit according to: y=A2+(A1−A2)/(1+(x/IC50)^p) where y is the %-inhibition at the inhibitor concentration, x. A1 is the lowest inhibition value, i.e. 0%, and A2 the maximum inhibition value, i.e. 100%. The exponent, p, is the Hill coefficient. The curve fitting was conducted with an internally developed software suite. […]

The test system of test [2] is NLRP3 inflammasome. As to the kind of experiment: IL-1β secretion assay. It counts as cell-based. As to conditions: Homo sapiens, THP-1, 3 h, PMA-differentiated THP-1 cells, 15 μM nigericin, HTRF. In a few lines:
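PMA-differentiated THP-1 cells stimulated with nigericin to trigger NLRP3-dependent IL-1β secretion, measured by HTRF after 3 h. Viability/pyroptosis monitored with PrestoBlue. IC50 from logistic fit of % inhibition vs concentration with Hill coefficient.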

The values below come from patent US12168012B2, “NLRP3 inflammasome inhibitors” (Novartis AG, priority 2018, dated 2024).

Each structure is given as a SMILES string.

For the molecule `CC(C)c1nn(CC(=O)N[C@@H]2CCC(=O)NC2)c(=O)c2cc3scnc3n12` [Ex 46, (R)-2-(5-Isopropyl-8-oxothiazolo[5′,4′:4,5]pyrrolo[1,2-d][1,2,4]triazin-7(8H)-yl)-N-(6-oxopiperidin-3-yl)acetamide], the figures for the IC50 in test [1] and in test [2] were more than 100000 nM and 50.8 nM, respectively.

As to `CC(C)c1nn(CC(=O)N[C@@H]2CCCN(C[C@@H](C)O)C2)c(=O)c2cc3sc(Cl)cc3n12` [Ex 128, 2-(2-Chloro-5-isopropyl-8-oxothieno[2′,3′:4,5]pyrrolo[1,2-d][1,2,4]triazin-7(8H)-yl)-N—((R)-1-((R)-2-hydroxypropyl)piperidin-3-yl)acetamide], the IC50 in test [1] is more than 100000 nM; in test [2] it was 4.5 nM.

On to `Cc1nc2c(cc3c(=O)n(CC(=O)N[C@@H]4CCCNC4)nc(C(C)C)n32)s1` [Ex 50, (R)-2-(5-Isopropyl-2-methyl-8-oxothiazolo[5′,4′:4,5]pyrrolo[1,2-d][1,2,4]triazin-7(8H)-yl)-N-(piperidin-3-yl)acetamide], for which the IC50 in test [1] was more than 100000 nM; in test [2] it was 108 nM.

In the case of `CC(C)c1nn(CC(=O)N[C@@H]2CCNC2)c(=O)c2cc3sc(Cl)cc3n12` [Ex 103, (R)-2-(2-Chloro-5-isopropyl-8-oxothieno[2′,3′:4,5]pyrrolo[1,2-d][1,2,4]triazin-7(8H)-yl)-N-(pyrrolidin-3-yl)acetamide], the IC50 in test [1] was more than 100000 nM; in test [2], 190 nM.

`CC(C)c1nn(CC(=O)N[C@H]2CCOC2)c(=O)c2cc3sc(Cl)cc3n12` [Ex 99, (S)-2-(2-Chloro-5-isopropyl-8-oxothieno[2′,3′:4,5]pyrrolo[1,2-d][1,2,4]triazin-7(8H)-yl)-N-(tetrahydrofuran-3-yl)acetamide]: the results for the concentration for half-maximal inhibition (IC50) in test [1] and in test [2] were more than 100000 nM and 537 nM, respectively.

Regarding `CC(C)c1nn(CC(=O)N[C@H]2CC[C@H](C(=O)O)CC2)c(=O)c2cc3sc(Cl)cc3n12` [Ex 53, (1r,4r)-4-(2-(2-Chloro-5-isopropyl-8-oxothieno[2′,3′:4,5]pyrrolo[1,2-d][1,2,4]triazin-7(8H)-yl)acetamido)cyclohexane-1-carboxylic acid], the IC50 in test [1] is more than 100000 nM; in test [2] it was 34.2 nM.

As to `CC(C)c1nn(CC(=O)N[C@@H]2CCC[C@@H](O)C2)c(=O)c2cc3scnc3n12` [Ex 47, N-((1R,3R)-3-Hydroxycyclohexyl)-2-(5-isopropyl-8-oxothiazolo[5′,4′:4,5]pyrrolo[1,2-d][1,2,4]triazin-7(8H)-yl)acetamide], the half-maximal inhibitory concentration (IC50) in test [1] was more than 100000 nM; in test [2], 9.1 nM.

Take `CC(C)c1nn(CC(=O)N[C@@H]2C[C@@H]2F)c(=O)c2cc3sc(Cl)cc3n12` [Ex 52, 2-(2-Chloro-5-isopropyl-8-oxothieno[2′,3′:4,5]pyrrolo[1,2-d][1,2,4]triazin-7(8H)-yl)-N-((1R,2S)-2-fluorocyclopropyl)acetamide]: the IC50 in test [1] was more than 100000 nM; in test [2], 660 nM.

For the molecule `O=C(Cn1nc(C2CC2)n2c(cc3scnc32)c1=O)Nc1cccnc1` [Ex 4, 2-(5-Cyclopropyl-8-oxothiazolo[5′,4′:4,5]pyrrolo[1,2-d][1,2,4]triazin-7(8H)-yl)-N-(pyridin-3-yl)acetamide], the IC50 was more than 100000 nM in test [1] and 220 nM in test [2].

Consider `CC(C)c1nn(CC(=O)Nc2ccc(F)cc2F)c(=O)c2cc3sc(Cl)cc3n12` [Ex 58, 2-(2-Chloro-5-isopropyl-8-oxothieno[2′,3′:4,5]pyrrolo[1,2-d][1,2,4]triazin-7(8H)-yl)-N-(2,4-difluorophenyl)acetamide], for which the results for the IC50 in test [1] and in test [2] were more than 100000 nM and 176 nM, respectively.

As for `CC(C)c1nn(CC(=O)NC[C@H](C)O)c(=O)c2cc3sc(Cl)cc3n12` [Ex 69, (S)-2-(2-Chloro-5-isopropyl-8-oxothieno[2′,3′:4,5]pyrrolo[1,2-d][1,2,4]triazin-7(8H)-yl)-N-(2-hydroxypropyl)acetamide], the IC50 in test [1] is more than 100000 nM; in test [2], 58.8 nM.

`CC(C)(O)c1nn(CC(=O)NC2CC2)c(=O)c2cc3sc(Cl)cc3n12` [Ex 62, 2-(2-Chloro-5-(2-hydroxypropan-2-yl)-8-oxothieno[2′,3′:4,5]pyrrolo[1,2-d][1,2,4]triazin-7(8H)-yl)-N-cyclopropylacetamide]: the IC50 in test [1] was more than 100000 nM; in test [2], 76.1 nM.

Turning to `CC(C)(O)c1nn(CC(=O)Nc2cccnc2)c(=O)c2cc3sc(Cl)cc3n12` [Ex 8, 2-(2-Chloro-5-(2-hydroxypropan-2-yl)-8-oxothieno[2′,3′:4,5]pyrrolo[1,2-d][1,2,4]triazin-7(8H)-yl)-N-(pyridin-3-yl)acetamide], the results for the IC50 in test [1] and in test [2] were more than 100000 nM and 87.4 nM, respectively.

With `CC(C)c1nn(CC(=O)N[C@@H]2CCCN(CCO)C2)c(=O)c2cc3sc(Cl)cc3n12` [Ex 133, (R)-2-(2-Chloro-5-isopropyl-8-oxothieno[2′,3′:4,5]pyrrolo[1,2-d][1,2,4]triazin-7(8H)-yl)-N-(1-(2-hydroxyethyl)piperidin-3-yl)acetamide], the IC50 in test [1] was more than 100000 nM; in test [2], 20.5 nM.

`CC(C)c1nn(CC(=O)N[C@@H]2CCOC2)c(=O)c2cc3sc(Cl)cc3n12` [Ex 100, (R)-2-(2-Chloro-5-isopropyl-8-oxothieno[2′,3′:4,5]pyrrolo[1,2-d][1,2,4]triazin-7(8H)-yl)-N-(tetrahydrofuran-3-yl)acetamide]: the results for the IC50 in test [1] and in test [2] were more than 100000 nM and 182 nM, respectively.

`CC(C)(O)c1nn(CC(=O)N[C@@H]2CCCNC2)c(=O)c2cc3sc(Cl)cc3n12` [Ex 79, (R)-2-(2-Chloro-5-(2-hydroxypropan-2-yl)-8-oxothieno[2′,3′:4,5]pyrrolo[1,2-d][1,2,4]triazin-7(8H)-yl)-N-(piperidin-3-yl)acetamide]: the IC50 in test [1] was more than 100000 nM; in test [2] it was 244 nM.

Regarding `CC(C)c1nn(CC(=O)N[C@@H]2CCC[C@@H](O)C2)c(=O)c2cc3sc(Cl)cc3n12` [Ex 21, 2-(2-Chloro-5-isopropyl-8-oxothieno[2′,3′:4,5]pyrrolo[1,2-d][1,2,4]triazin-7(8H)-yl)-N-((1R,3R)-3-hydroxycyclohexyl)acetamide], the IC50 in test [1] is more than 100000 nM; in test [2] it was 32.5 nM.

As to `CC(C)c1nn(CC(=O)N[C@H]2CC[C@@H](C(=O)O)CC2)c(=O)c2cc3sc(Cl)cc3n12` [Ex 54, (1s,4s)-4-(2-(2-Chloro-5-isopropyl-8-oxothieno[2′,3′:4,5]pyrrolo[1,2-d][1,2,4]triazin-7(8H)-yl)acetamido)cyclohexane-1-carboxylic acid], the IC50 in test [1] was more than 100000 nM; in test [2] it was 562 nM.

Regarding `Cc1cc2c(cc3c(=O)n(CC(=O)Nc4cccnc4)nc(C(C)C)n32)s1` [Ex 7, 2-(5-Isopropyl-2-methyl-8-oxothieno[2′,3′:4,5]pyrrolo[1,2-d][1,2,4]triazin-7(8H)-yl)-N-(pyridin-3-yl)acetamide], the IC50 was more than 100000 nM in test [1] and 254 nM in test [2].

For `COC(=O)C12CC(NC(=O)Cn3nc(C(C)C)n4c(cc5sc(Cl)cc54)c3=O)(C1)C2` [Ex 113, Methyl 3-(2-(2-chloro-5-isopropyl-8-oxothieno[2′,3′:4,5]pyrrolo[1,2-d][1,2,4]triazin-7(8H)-yl)acetamido)bicyclo[1.1.1]pentane-1-carboxylate], the IC50 in test [1] was more than 100000 nM; in test [2] it was 5.8 nM.

Turning to `CC(C)c1nn(CC(=O)N[C@@H]2CCCN(C[C@H](C)O)C2)c(=O)c2cc3sc(Cl)cc3n12` [Ex 129, 2-(2-Chloro-5-isopropyl-8-oxothieno[2′,3′:4,5]pyrrolo[1,2-d][1,2,4]triazin-7(8H)-yl)-N-((R)-1-((S)-2-hydroxypropyl)piperidin-3-yl)acetamide], the values for the IC50 in test [1] and in test [2] were more than 100000 nM and 3.1 nM, respectively.

Turning to `Cc1cc2c(cc3c(=O)n(CC(=O)N[C@@H]4CCCN(C)C4)nc(C(C)C)n32)s1` [Ex 40, (R)-2-(5-Isopropyl-2-methyl-8-oxothieno[2′,3′:4,5]pyrrolo[1,2-d][1,2,4]triazin-7(8H)-yl)-N-(1-methylpiperidin-3-yl)acetamide], the IC50 in test [1] is more than 100000 nM; in test [2] it was 56.3 nM.

Consider `CC(O)c1nn(CC(=O)Nc2ccncn2)c(=O)c2cc3sc(Cl)cc3n12` (centres unmarked) [Ex 3, 2-(2-Chloro-5-(1-hydroxyethyl)-8-oxothieno[2′,3′:4,5]pyrrolo[1,2-d][1,2,4]triazin-7(8H)-yl)-N-(pyrimidin-4-yl)acetamide], for which the half-maximal inhibitory concentration (IC50) is more than 100000 nM in test [1] and 228 nM in test [2].

On to `CC(C)c1nn(CC(=O)NCCC(C)(C)O)c(=O)c2cc3sc(Cl)cc3n12` [Ex 77, 2-(2-Chloro-5-isopropyl-8-oxothieno[2′,3′:4,5]pyrrolo[1,2-d][1,2,4]triazin-7(8H)-yl)-N-(3-hydroxy-3-methylbutyl)acetamide], for which the 50% inhibitory concentration (IC50) in test [1] was more than 100000 nM; in test [2], 14 nM.

`CC(C)(O)c1nn(CC(=O)N[C@@H]2CCCN(CCF)C2)c(=O)c2cc3sc(Cl)cc3n12` [Ex 30, (R)-2-(2-Chloro-5-(2-hydroxypropan-2-yl)-8-oxothieno[2′,3′:4,5]pyrrolo[1,2-d][1,2,4]triazin-7(8H)-yl)-N-(1-(2-fluoroethyl)piperidin-3-yl)acetamide]: the IC50 in test [1] was more than 100000 nM; in test [2], 52.5 nM.
